From paper PMC10816263, “Thermophilic PHP Protein Tyrosine Phosphatases (Cap8C and Wzb) from Mesophilic Bacteria” (International Journal of Molecular Sciences, 2024) come the findings set out here.

The target of one test is T1, Wzb (Lacticaseibacillus rhamnosus, UniProt Q58Z13).
T1 sequence (Q58Z13 1-254): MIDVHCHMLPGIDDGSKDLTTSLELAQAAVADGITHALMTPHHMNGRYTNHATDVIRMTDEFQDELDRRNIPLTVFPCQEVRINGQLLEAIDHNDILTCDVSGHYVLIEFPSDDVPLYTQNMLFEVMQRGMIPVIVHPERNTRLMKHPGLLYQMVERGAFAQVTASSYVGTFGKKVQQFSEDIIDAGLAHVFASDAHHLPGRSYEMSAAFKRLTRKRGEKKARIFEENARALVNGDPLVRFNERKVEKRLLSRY
Description: p-nitrophenol release, absorbance […] nm. In kind it is biochemical. The following applies: 5 mM pNPP, 0.25 µM enzyme, 1.0 mM Co2+ (also Ni2+ or Mn2+), 92 mM Tris-HCl pH 7.5, 75 °C, 15 min.

The next test concerns the target Cap8C (Staphylococcus aureus, UniProt P72369). As to the kind of experiment: p-nitrophenol release, absorbance […] nm. The test is classed as biochemical. The following applies: 5 mM pNPP, 0.25 µM enzyme, 1.0 mM Co2+ (also Ni2+ or Mn2+), 92 mM Tris-HCl pH 7.5, 75 °C, 15 min.

Molecules are shown by their SMILES.

Sequence of Cap8C (P72369 entry or part of it): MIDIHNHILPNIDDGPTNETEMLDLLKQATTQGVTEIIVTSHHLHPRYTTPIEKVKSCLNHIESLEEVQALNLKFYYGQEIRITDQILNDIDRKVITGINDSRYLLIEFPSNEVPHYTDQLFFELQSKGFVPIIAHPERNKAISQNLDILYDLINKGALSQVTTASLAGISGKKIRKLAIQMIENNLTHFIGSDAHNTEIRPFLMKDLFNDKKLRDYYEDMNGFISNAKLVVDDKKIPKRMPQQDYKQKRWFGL

`O=[N+]([O-])c1ccc(OP(=O)(O)O)cc1` [p-nitrophenylphosphate]: the “p-nitrophenol release, absorbance 405 nm” value at Wzb was “Lactobacillus rhamnosus Wzb proteins were established to have phosphatase activity using pNPP as substrate”; on Cap8C it was “Cap8C and Lactobacillus rhamnosus Wzb proteins were established to have phosphatase activity using pNPP”.
